Data taken from PubChem BioAssay AID248 (DTP/NCI, 2004).
Toxic doses and inconclusive results are not listed. Square brackets hold non-standard residues; d marks the D form. Peptide text beside a SMILES is read from it. * marks the point of attachment. Tos = Cc1ccc(S(=O)(=O)*)cc1; ΔPro = O=C(O)[CH]1C=CCN1

Tested on: L1210 leukemia ip in BDF1 mice, survival T/C
Test: NCI In Vivo Anticancer Drug Screen. Data for tumor model L1210 Leukemia (intraperitoneal) in B6D2F1 (BDF1) mice
Details: endpoint: mean survival time, higher = longer survival
Procedure, shortened: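 Value reflects the ratio of survival in compound-treated mice to survival in vehicle-treated controls, with both groups carrying the same transplanted tumor.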

[1] = dose: 100.0 mg/kg/injection, schedule: Q04DX002 (ip), vehicle: Klucel (hydroxypropylcellulose) (HPC)
[2] = dose: 200.0 mg/kg/injection, schedule: Q04DX002 (ip), vehicle: Klucel (hydroxypropylcellulose) (HPC)
[3] = dose: 400.0 mg/kg/injection, schedule: Q04DX002 (ip), vehicle: Klucel (hydroxypropylcellulose) (HPC)
[4] = dose: 100.0 mg/kg/injection, schedule: Q01DX009 (ip), vehicle: Klucel (hydroxypropylcellulose) (HPC)
[5] = dose: 100.0 mg/kg/injection, schedule: Q04DX003 (ip), vehicle: Klucel (hydroxypropylcellulose) (HPC)
[6] = dose: 200.0 mg/kg/injection, schedule: Q04DX003 (ip), vehicle: Klucel (hydroxypropylcellulose) (HPC)
[7] = dose: 400.0 mg/kg/injection, schedule: Q04DX003 (ip), vehicle: Klucel (hydroxypropylcellulose) (HPC)
[8] = dose: 100.0 mg/kg/injection, schedule: Q01DX009 (ip), vehicle: saline with Tween-80
[9] = dose: 400.0 mg/kg/injection, schedule: Q01DX009 (ip), vehicle: saline with Tween-80
[10] = dose: 100.0 mg/kg/injection, schedule: Q04DX003 (ip), vehicle: saline with Tween-80
[11] = dose: 400.0 mg/kg/injection, schedule: Q04DX003 (ip), vehicle: saline with Tween-80
[12] = dose: 100.0 mg/kg/injection, schedule: Q01DX001 (ip), vehicle: Klucel (hydroxypropylcellulose) (HPC)
[13] = dose: 200.0 mg/kg/injection, schedule: Q01DX001 (ip), vehicle: Klucel (hydroxypropylcellulose) (HPC)
[14] = dose: 400.0 mg/kg/injection, schedule: Q01DX001 (ip), vehicle: Klucel (hydroxypropylcellulose) (HPC)
[15] = dose: 100.0 mg/kg/injection, schedule: Q01DX001 (ip), vehicle: saline
[16] = dose: 200.0 mg/kg/injection, schedule: Q01DX001 (ip), vehicle: saline
[17] = dose: 400.0 mg/kg/injection, schedule: Q01DX001 (ip), vehicle: saline
[18] = dose: 200.0 mg/kg/injection, schedule: Q01DX009 (ip), vehicle: Klucel (hydroxypropylcellulose) (HPC)
[19] = dose: 400.0 mg/kg/injection, schedule: Q01DX009 (ip), vehicle: Klucel (hydroxypropylcellulose) (HPC)

Cc1ccc[n+](Cc2ccccc2)c1
T/C (dose: 12.5 mg/kg/injection, schedule: Q04DX003 (ip), vehicle: saline): 98 % of control
T/C (dose: 25.0 mg/kg/injection, schedule: Q04DX003 (ip), vehicle: saline): 101 % of control
T/C (dose: 50.0 mg/kg/injection, schedule: Q04DX003 (ip), vehicle: saline): 97 % of control

O=C(O)COc1ccccc1[N+](=O)[O-]
T/C [1]: 96 % of control
T/C [2]: 100 % of control
T/C [3]: 96 % of control

O=C(Nc1cc(Cl)cc2c1-c1c(Cl)cc(Cl)cc1C2)C(Cl)Cl
T/C (dose: 50.0 mg/kg/injection, schedule: Q04DX003 (ip), vehicle: Klucel (hydroxypropylcellulose) (HPC)): 100 % of control
T/C [4]: 97 % of control
T/C [5]: 92 % of control
T/C [6]: 94 % of control
T/C [7]: 100 % of control

COC(=O)C(C)Oc1ccc([N+](=O)[O-])c(O)c1[N+](=O)[O-] (centres undefined)
T/C [5]: 100 % of control
T/C [6]: 91 % of control
T/C [7]: 96 % of control

O=C1C(=O)c2ccccc2C(O)=C1CCCCCCCCCC[S+](CCO)CCO
T/C (dose: 100.0 mg/kg/injection, schedule: Q01DX001 (ip), vehicle: other): 104 % of control
T/C (dose: 200.0 mg/kg/injection, schedule: Q01DX001 (ip), vehicle: other): 101 % of control

CCCCCCC(C)Cl (centres undefined)
T/C [8]: 105 % of control
T/C (dose: 200.0 mg/kg/injection, schedule: Q01DX009 (ip), vehicle: saline with Tween-80): 108 % of control
T/C [9]: 106 % of control

CCCCCCCCCCCCCCCC[n+]1ccc(/C=C/c2ccccc2)cc1
T/C (dose: 2.5 mg/kg/injection, schedule: Q01DX001 (ip), vehicle: carboxymethylcellulose (CMC)): 116 % of control
T/C (dose: 5.0 mg/kg/injection, schedule: Q01DX001 (ip), vehicle: carboxymethylcellulose (CMC)): 121 % of control
T/C (dose: 10.0 mg/kg/injection, schedule: Q01DX001 (ip), vehicle: carboxymethylcellulose (CMC)): 116 % of control

Cc1ccc2[nH]c(=S)[nH]c2c1
T/C (dose: 100.0 mg/kg/injection, schedule: Q01DX001 (ip), vehicle: saline with Tween-80): 101 % of control
T/C (dose: 200.0 mg/kg/injection, schedule: Q01DX001 (ip), vehicle: saline with Tween-80): 106 % of control

COC(=O)C1C=CCN1C(=O)C(Cc1ccccc1)NS(=O)(=O)c1ccc(C)cc1 (stereo not drawn) (Tos-Phe-[ΔPro]-OMe; configuration not given here)
T/C (dose: 50.0 mg/kg/injection, schedule: Q01DX005 (ip), vehicle: saline): 96 % of control
T/C (dose: 100.0 mg/kg/injection, schedule: Q01DX005 (ip), vehicle: saline): 107 % of control
T/C (dose: 200.0 mg/kg/injection, schedule: Q01DX005 (ip), vehicle: saline): 105 % of control

COC(=O)c1ccc(Cn2ccc(=O)n(Cc3ccc(C(=O)OC)cc3)c2=O)cc1
T/C [10]: 91 % of control
T/C (dose: 200.0 mg/kg/injection, schedule: Q04DX003 (ip), vehicle: saline with Tween-80): 88 % of control
T/C [11]: 90 % of control

S=c1cc[nH]c2[nH]ncc12
T/C (dose: 100.0 mg/kg/injection, schedule: Q04DX002 (ip), vehicle: DMSO): 94 % of control
T/C (dose: 200.0 mg/kg/injection, schedule: Q04DX002 (ip), vehicle: DMSO): 97 % of control

O=C(O)c1ccc(NCc2cc(=O)[nH]c(=O)[nH]2)cc1
T/C (dose: 100.0 mg/kg/injection, schedule: Q04DX003 (ip), vehicle: saline): 101 % of control
T/C (dose: 200.0 mg/kg/injection, schedule: Q04DX003 (ip), vehicle: saline): 95 % of control
T/C (dose: 400.0 mg/kg/injection, schedule: Q04DX003 (ip), vehicle: saline): 103 % of control

CC(=O)Nc1cccc(Cl)c1F
T/C [1]: 100 % of control
T/C [2]: 93 % of control
T/C [3]: 107 % of control

Cc1cc(C)c(C2=C(Br)C(=O)C(c3c(C)cc(C)c(C)c3C)=C(Br)C2=O)c(C)c1C
T/C [12]: 98 % of control
T/C [13]: 103 % of control
T/C [14]: 98 % of control

COc1ccc(/C=N\NC(=O)CCCC(=O)N/N=C/c2ccc(OC)c(OC)c2)cc1OC
T/C (dose: 50.0 mg/kg/injection, schedule: Q01DX001 (ip), vehicle: saline): 100 % of control
T/C [15]: 100 % of control
T/C [16]: 93 % of control
T/C [17]: 100 % of control

Cc1cccc[c]1[Sb]([c]1ccccc1C)[c]1ccccc1C
T/C (dose: 100.0 mg/kg/injection, schedule: Q04DX002 (ip), vehicle: saline with Tween-80): 100 % of control
T/C (dose: 200.0 mg/kg/injection, schedule: Q04DX002 (ip), vehicle: saline with Tween-80): 96 % of control
T/C (dose: 400.0 mg/kg/injection, schedule: Q04DX002 (ip), vehicle: saline with Tween-80): 96 % of control

CC1=C2CC(C(C)(C)O)CCC2(C)CC/C1=N\NC(N)=S (centres undefined)
T/C [8]: 98 % of control
T/C [9]: 86 % of control

Brc1ccc(C#Cc2ccccc2)cc1
T/C [4]: 100 % of control
T/C [18]: 100 % of control
T/C [19]: 108 % of control

c1ccc(CCN2COc3c(ccc4cccnc34)C2)cc1
T/C [10]: 102 % of control
T/C [11]: 90 % of control

COC(=O)C(c1ccccc1)C(Br)C(=O)c1ccccc1 (centres undefined)
T/C [4]: 86 % of control
T/C [5]: 97 % of control
T/C [18]: 86 % of control
T/C [6]: 102 % of control
T/C [19]: 86 % of control
T/C [7]: 95 % of control

c1ccc2nc3c(cc2c1)NCC3
T/C [12]: 95 % of control
T/C [13]: 97 % of control
T/C [14]: 109 % of control

CC(=Nc1ccc(Cl)cc1)Nc1ccc(Cl)cc1
T/C (dose: 62.5 mg/kg/injection, schedule: Q01DX009 (ip), vehicle: Klucel (hydroxypropylcellulose) (HPC)): 92 % of control
T/C (dose: 125.0 mg/kg/injection, schedule: Q01DX009 (ip), vehicle: Klucel (hydroxypropylcellulose) (HPC)): 96 % of control
T/C (dose: 250.0 mg/kg/injection, schedule: Q01DX009 (ip), vehicle: Klucel (hydroxypropylcellulose) (HPC)): 100 % of control

OCc1ccccc1NCc1ccccc1
T/C [4]: 103 % of control
T/C (dose: 100.0 mg/kg/injection, schedule: Q04DX003 (ip), vehicle: other): 105 % of control
T/C [18]: 91 % of control
T/C (dose: 200.0 mg/kg/injection, schedule: Q04DX003 (ip), vehicle: other): 100 % of control
T/C [19]: 99 % of control
T/C (dose: 400.0 mg/kg/injection, schedule: Q04DX003 (ip), vehicle: other): 97 % of control

C=C1C(=O)OC2CC(C)C3CC(O)OC(O)C3(C)CC12 (centres undefined)
T/C (dose: 0.39 mg/kg/injection, schedule: Q01DX005 (ip), vehicle: water): 108 % of control
T/C (dose: 0.78 mg/kg/injection, schedule: Q01DX005 (ip), vehicle: water): 108 % of control
T/C (dose: 1.56 mg/kg/injection, schedule: Q01DX005 (ip), vehicle: water): 106 % of control
T/C (dose: 3.13 mg/kg/injection, schedule: Q01DX005 (ip), vehicle: water): 106 % of control
T/C (dose: 6.25 mg/kg/injection, schedule: Q01DX005 (ip), vehicle: water): 104 % of control

CC1CN=C(c2ccc(NC(=O)C3CCC(C(=O)Nc4ccc(C5=NCC(C)N5)cc4)CC3)cc2)N1 (centres undefined)
T/C (dose: 31.0 mg/kg/injection, schedule: Q01DX015 (ip), vehicle: methylcellulose (MC)): 159 % of control
T/C (dose: 62.0 mg/kg/injection, schedule: Q01DX015 (ip), vehicle: methylcellulose (MC)): 113 % of control

O=C1NC(=O)c2cc([N+](=O)[O-])cc3cccc1c23
T/C [15]: 94 % of control
T/C (dose: 100.0 mg/kg/injection, schedule: Q01DX009 (ip), vehicle: saline sonified): 90 % of control
T/C [5]: 97 % of control
T/C [16]: 97 % of control
T/C (dose: 200.0 mg/kg/injection, schedule: Q01DX009 (ip), vehicle: saline sonified): 95 % of control
T/C [6]: 87 % of control
T/C [17]: 90 % of control
T/C (dose: 400.0 mg/kg/injection, schedule: Q01DX009 (ip), vehicle: saline sonified): 88 % of control
T/C [7]: 86 % of control
